Columns and labels:
[1] = system: rat cerebral bNOS; test: inhibition of bNOS activity (nitrite production, Griess reaction); assay type: biochemical; conditions: for bNOS Inhibition, % Inhib: 15 min, average of 4 wells; for IC50: approximately, FIG. 1; for specificity/selectivity of bNOS inhibition: at the concentrations tested, conclusion in words
Protocol: Rat cerebral bNOS in working buffer was incubated with L-arginine and the nitrites produced after 15 minutes were measured using the Griess reaction. Results are presented as the % inhibition of bNOS activity as compared to a negative control (0% inhibition) and positive control (100% inhibition). Each point represents the average inhibition ± standard deviation of 4 wells.
Marine-derived imidazole and indole containing compounds were tested for their ability to inhibit rat cerebral NOS at a concentration range of 1.0 to 50 μM.
Evaluation of activity of bNOS was performed by measuring nitrite production using the Griess reaction (Greenberg, S. S., J. Xie, J. J. Spitzer, J. F. Wang, J. Lancaster, M. B. Grisham, D. R. Powers, T. D. Giles [1995] Life Sci. 57:1949-1961) following an incubation of purified bNOS with L-arginine according to the methods of Ohshima et al. (Ohshima, H., S. Oguchi, H. Adachi, S. Iida, H. Suzuki, T. Sugimura, H. Esumi [1992] Biochem. Biophys. Res. Comm. 183:238-244). All reactions were carried out in 96 well microtiter plates. Briefly, imidazole and indole compounds were tested in reaction buffer (80 mM HEPES, pH 7.3; 1.0 mM EDTA; 1.5 mM CaCl2) containing calmodulin (330 units/ml; Sigma Chemical Co.), dithiothreitol (1.3 mM), tetrahydrobiopterin (66 μM; Sigma), flavin adenine dinucleotide (16 μM; Sigma), and bovine brain nitric oxide synthase (1.67 units/ml; Sigma). The solutions were mixed and equilibrated at 37° C. for 2 minutes prior to the addition of L-arginine (113 μM; Sigma) and NADPH (200 μM; Sigma). Final reaction volume was 150 μl per well. The enzymatic reaction occurred at 37° C. for 15 minutes and nitrite formation detected by the addition of 100 μl of Greiss's reagent (1% sulfanilamide, 0.15% n-1-(naphthyl)-ethylenediamine dihydrochloride, 2.5% phosphoric acid; Sigma) and the color intensity determined by spectrophotometric absorbance at 540 nm (Spectra II; Tecan US Inc., Durham, N.C.).

[2] = target: calcineurin (Homo sapiens, UniProt Q08209); test: inhibition of calcineurin activity (PNPP dephosphorylation); assay type: biochemical; conditions: for IC50: PNPP substrate, 30° C., 1 hour; for potency on calcineurin compared with bNOS: comparison of IC50 for calcineurin and bNOS; for inhibition of calcineurin activity: at concentrations below 50 μM
Protocol: Inhibition of calcineurin, a calmodulin-dependent enzyme (Klee, C. B., H. Ren, X. Wang [1998] J. Biol. Chem. 273:13367-13370), by marine-derived imidazoles and indoles was tested as an indirect means of assessing the effect of these compounds on calmodulin. […] Neither hamacanthin-A nor dragmacidin were able to inhibit calcineurin activity by more than 33% at concentrations below 50 μM.
Calcineurin activity was measured by the colorimetric method based on the dephosphorylation of p-nitrophenyl phosphate (PNPP) (Greenberg, S. S., J. Xie, J. J. Spitzer, J. F. Wang, J. Lancaster, M. B. Grisham, D. R. Powers, T. D. Giles [1995] Life Sci. 57:1949-1961) in a buffer of 0.5 mM MnCl2, 1 mM dithiothreitol, 50 mM tris base (pH 7.5), 0.05 mM CaCl2, and 10 μg/ml calmodulin (Sigma). Briefly, marine-derived compounds in ethanol were transferred to 96-well plates, air dried and resuspended in the working buffer. Calcineurin was added to a final concentration of 2.75 μg protein/ml and the enzyme allowed to equilibrate at 30° C. for 10 minutes prior to the addition of substrate. PNPP was added (final concentration≈50 mM) and the reaction mixture incubated at 30° C. for 1 hour. The optical density was measured at 405 nm in a Spectra II spectrophotometer.

[3] = target: T1, iNOS (murine macrophage RAW 264.7 cells) (Mus musculus, UniProt P29477); test: inhibition of whole cell iNOS activity in LPS/IFN-γ stimulated RAW 264.7 cells (nitrites, Griess reaction); assay type: cell-based; conditions: RAW264.7, 24 hours, average of 4 wells, read-out: iNOS Inhibition, % Inhibit
T1 construct: host or cells: RAW 264.7
Protocol: Resultant nitrites in the TCM were measured by the Griess reaction and compared to stimulated cells incubated in the absence of test compound (0% inhibition) and unstimulated cells (100% inhibition). Each point represents the average inhibition of 4 wells±standard deviation.
Inhibition of whole cell iNOS activity by hamacanthin-A, dragmacidin and dragmacidin-D was tested to determine the specificity of the NOS inhibitory actions of these compounds.
RAW 264.7 cells were obtained from the American Type Culture Collection (Rockville, Md.) and maintained in tissue culture medium (TCM) (RPMI 1640 medium containing 100 U/ml penicillin, 100 μg/ml streptomycin, 60 μg/ml L-glutamine, 18 mM HEPES, 0.05 mg/ml gentamicin; Life Technologies, Gaithersburg, Md.) and supplemented with 10% rehatuin fetal bovine serum (Intergen Co., Purchase, N.Y.). Cells were subcultured at 3-4 day intervals, and used within 20 passages from the initial stock culture.
Test compounds were diluted in ethanol, aliquoted into appropriate wells of a 96 well microtiter plate and allowed to air dry for 1 hour at room temperature. RAW 264.7 cells were then subcultured into each well at a density of 5×10^4 cells/well in 200 μl of TCM containing lipopolysaccharide (1 ng/ml; Sigma) and interferon-γ (2 units/ml; PharMingen, San Diego, Calif.). Plates were incubated at 37° C., 5% CO2 for 24 hours. 150 μl of the TCM from each well was transferred to a second microtiter plate, 100 μl Griess reagent added to this TCM and the color intensity determined as above. Viability of the cells was determined by the methods of Mossman (Mossman, T. [1983] J. Immunol. Methods 65:55-63). Briefly, 150 μl of TCM containing 3-[4,5-dimethylthiazol-2-yl]-2,5-diphenyltetrazolium bromide (MTT, 2.5 mg/ml; Sigma) was added to each well containing the RAW 264.7 cells and incubated at 37° C., 5% CO2 for 3 hours. The medium was removed from all wells and replaced with 200 μl of acidified isopropyl alcohol (0.2% HCl). The plates were shaken for 15 minutes and the presence of the blue formazan was detected using a Spectra II spectrophotometer set at 570 nm and with a 650 nm reference filter.

| SMILES | bNOS Inhibition, % Inhib ([1]; 1 μM) [%] | bNOS Inhibition, % Inhib ([1]; 5 μM) [%] | bNOS Inhibition, % Inhib ([1]; 10 μM) [%] | bNOS Inhibition, % Inhib ([1]; 50 μM) [%] | IC50 [1] [µM] | specificity/selectivity of bNOS inhibition [1] | IC50 [2] [µM] | potency on calcineurin compared with bNOS [2] | inhibitory effects on the production of NO (bNOS) ([1]; 1.0 to 50 μM) | inhibition of calcineurin activity [2] [%] | inhibition at 2.5 µM [3] [%] | inhibition at 5 µM [3] [%] | inhibition at 10 µM [3] [%] | inhibition at 25 µM [3] [%] | inhibition at 50 µM [3] [%] |
| --- | --- | --- | --- | --- | --- | --- | --- | --- | --- | --- | --- | --- | --- | --- | --- |
| Brc1ccc2c(-c3c[nH]c(-c4c[nH]c5ccccc45)n3)c[nH]c2c1 [Nortopsentin-C, nortopsentin-C] | 20.16 | 9.88 | 16.05 | 98.77 | ~27 | not able to selectively inhibit rat cerebral bNOS | 11.4 | a concentration lower than its IC50 for bNOS |  |  |  |  |  |  |  |
| O=C(c1nc(-c2c[nH]c3ccccc23)c[nH]1)c1c[nH]c2cc(O)ccc12 [Topsentin, topsentin] | 5.08 | 5.47 | -0.39 | 22.66 |  | not able to selectively inhibit rat cerebral bNOS |  |  | minimal inhibitory effects |  |  |  |  |  |  |
| O=C1NC(c2c[nH]c3cc(Br)ccc23)CN=C1c1c[nH]c2cc(Br)ccc12 (stereo not drawn) [Hamacanthin-A, hamacanthin-A] | 35.42 | 43.33 | 75.42 | 99.58 | ~7.5 | able to specifically block the activity of bNOS |  |  |  | ≤ 33 | 2.6 | -0.61 | 0.69 | 0.65 | 5.54 |
| CC(c1cnc(N)[nH]1)c1ccc(O)c2[nH]cc(-c3cnc(-c4c[nH]c5cc(Br)ccc45)c(=O)[nH]3)c12 (stereo not drawn) [Dragmacidin-D, dragmacidin-D] | 16.89 | 74.22 | 96.44 | 99.56 | ~4 | able to specifically block the activity of bNOS | 10 | a more potent inhibitor of bNOS |  |  | -3.55 | -3.42 | -0.61 | 2.34 | 26.9 |
| CN1C[C@H](c2c[nH]c3c(Br)c(Br)cc(O)c23)NC[C@H]1c1c[nH]c2cc(Br)ccc12 (relative stereo) [Dragmacidin, dragmacidin] | 38.94 | 3.54 | 32.74 | 90.27 | ~20 | able to specifically block the activity of bNOS |  |  |  | ≤ 33 | -3.94 | -8.44 | -6.23 | 3.16 | 15.8 |

Reference: US6087363A, “Use of imidazole and indole compounds as inhibitors of nitric oxide synthase” (Harbor Branch Oceanographic Institution, Inc., priority 1999, dated 2000)
